Earlier results, collected in patent US7842730B2, “Medical emulsion of perfluororganic compounds and method for the production thereof” (priority 2004, dated 2010).

Legend:
[1] = for Tcritical (critical solution temperature in hexane): Table 1; for Critical solution temperature, (Tcritical): Table 3
[2] = for P, vapor pressure: 37°; for Vapor pressure: 37° C., Table 3
[3] = 37° C.

## CCCN1CCCCC1C (stereo not drawn) [1-propyl-2-methylpiperidine]
[1]
  Tcritical (critical solution temperature in hexane): 35 °C
[2]
  P, vapor pressure: 19 mm QS

## FC1(F)C(F)(F)C(F)(F)C2(F)C(F)(F)C(F)(F)C(F)(F)C(F)(F)C2(F)C1(F)F (stereo not drawn) [PFD, perfluorodecaline]
[1]
  Tcritical (critical solution temperature in hexane): 22 °C
  Critical solution temperature, (Tcritical): 22 °C
[2]
  P, vapor pressure: 12 mm QS
  Vapor pressure: 12.7 mm QS
other
  t1/2 (elimination from the organism): ~170 h
[3]
  Oxygen solubility: 40 ml/100 ml (vol.-%)

## FC(F)(F)C(F)(F)C(F)(F)C(F)(F)C(F)(F)C(F)(F)C(F)(F)C(F)(F)C(F)(F)C(F)(F)Br [PFDB, Perfluorodecylbromide]
[1]
  Critical solution temperature, (Tcritical): 7 °C
[2]
  Vapor pressure: 1.5 mm QS

## FC(F)(F)C(F)(F)C(F)(F)C(F)(F)C(F)(F)C(F)(F)C(F)(F)C(F)(F)Br [PFOB, perfluorooctylbromide]
[1]
  Critical solution temperature, (Tcritical): −20 °C
[2]
  Vapor pressure: 10.5 mm QS
other
  t1/2 (elimination from the organism): ~96 h
[3]
  Oxygen solubility: 53 ml/100 ml (vol.-%)

## FC(F)(F)C(F)(F)C(F)(F)N(C(F)(F)C(F)(F)C(F)(F)F)C(F)(F)C(F)(F)C(F)(F)F [PFTPA, perfluorotripropylamine]
[1]
  Tcritical (critical solution temperature in hexane): 43 °C
  Critical solution temperature, (Tcritical): 44 °C
[2]
  P, vapor pressure: 17 mm QS
  Vapor pressure: 18.0 mm QS
[3]
  Oxygen solubility: 45 ml/100 ml (vol.-%)

## C1CCC2CCCC2C1 (stereo not drawn) [bicyclo[4.3.0]nonane]
[1]
  Tcritical (critical solution temperature in hexane): 13 °C
[2]
  P, vapor pressure: 33 mm QS

## C1CC2CCCC3CCC(C1)C23 (stereo not drawn) [decahydroacenaphthene]
[1]
  Tcritical (critical solution temperature in hexane): 24 °C
[2]
  P, vapor pressure: 2 mm QS

## CCCCCCOCCCCCC [dihexylether]
[1]
  Tcritical (critical solution temperature in hexane): 59 °C
[2]
  P, vapor pressure: 2 mm QS

## perfluoromethylcyclohexylpiperidine [PFMHP]
[1]
  Tcritical (critical solution temperature in hexane): 38 °C
  Critical solution temperature, (Tcritical): 40 °C
[2]
  P, vapor pressure: 1 mm QS
  Vapor pressure: 2.0 mm QS
[3]
  Oxygen solubility: 40 ml/100 ml (vol.-%)
